Assay results as given in US8889620B2, “Pharmaceutical compositions comprising peptide antagonists of vascular endothelial growth factor” (Children's Medical Center Corporation, priority 1997, dated 2014).
Where no end group is shown, it is not given here.

System: VEGF121-induced proliferation of HUVEC
Test: Inhibition of VEGF121-stimulated HUVEC proliferation
Assay type: cell-based, human
Method: FIG. 7. GST-Ex 7+8 fusion protein inhibits VEGF165 and VEGF121-stimulated HUVEC proliferation. Increasing concentration of VEGF165 (circles) or VEGF121 (square) with 15 ug/ml GST-Ex 7+8 (closed symbols) or without GST-Ex 7+8 (open symbols) were added to HUVEC, and [*H]thymidine incorporation into the DNA was measured as in FIG. 2. The results represent the average counts of three wells and the standard deviations were determined.
HUVEC were seeded in gelatin-coated 96-well dishes at 4,000 cells/200 Ul/well in M-199 containing 5% FCS and GPS. After 24 H, VEGF isoforms and VEGF exon 7-GST fusion proteins were added to the wells at the same time. The cells were incubated for 72 h, and [3H]thymidine (1 pC/ml) was added for 10-12 h. The medium was aspirated, and the cells were trypsinized and harvested by an automatic cell harvester (TOMTEC) and loaded onto Filtermats (Wallac). The Filtermats were scanned and cpm were determined by a MicroBeta counter (Wallac). The results represent the average of samples assayed in triplicate, and the standard derivations were determined. All experiments were repeated at least three times and similar results were obtained.

Substance: GST-Ex 7+8: GST fusion protein containing the peptide encoded by VEGF165 exons 7 and 8 (PCGPCSERRKHLFVQDPQTCKCSCKNTDSRCKARQLELNERTCRCDKPRR; cysteine pairing not given here; also: GST fusion protein, side of fusion not given here)
- inhibition of the mitogenic activity of VEGF121 for HUVEC: about 50%
- inhibition of VEGF125-mediated HUVEC proliferation (15 ug/ml, FIG. 7): about 2 fold
